The test system of one test is fibromyxosarcoma. Put plainly: Longevity study: manifestation of subcutaneous fibromyxosarcoma (TMS effect). Particulars: for tumor manifestation suppressing (TMS) effect versus saline: Kaplan-Meier, P<0.001. It counts as in vivo, rat. As to the method: (§1) The longevity study was performed on 200 male rats received from the breeding colony of the Semmelweis University. The rats were born at the end of February of 2010. After 2-month acclimation period the rats were divided randomly into 5 even groups. The longevity study started at the beginning of May 2010. Animals were observed until their natural deaths. The data in this study represent the changes observed until Oct. 31, 2012, since in the saline-treated group the last animal died on Oct. 31, 2012. As will be shown later a few rats in the enhancer-treated groups were still alive on Nov. 1, 2012.
(§2) During the longevity study 5 rats were housed together in polycarbonate cages (height: 18 cm; wide: 42 cm; length: 44 cm) with a stainless steel on the top. Cage bedding was renewed 3 times a week (Monday, Wednesday and Friday). Bodyweight was measured once every month. The treatment started at the end of the second month of their age.
We carefully observed the appearance of the subcutaneous tumor and followed the development of the tumor until death. Histological analysis was performed post mortem on several rats taken from each group as examples.
The subcutaneous tumors developed in the rats were measured by the two largest diameters. After sacrificing the animals, the tumors were removed, photographs were taken. Tissues were fixed immediately after removal in 10% neutral formalin (in PBS, pH7.0) for 24 hours at room temperature, dehydrated and embedded in paraffin. 3-4 micrometer thick sections were cut and stained by hematoxylin and eosin (HE) as a routine.
(§3) Significance in the performance between the groups in the shuttle box was evaluated by multi-factor analysis of variance (ANOVA). Significance regarding the span of time from tumor manifestation until death in rats and regarding aging related changes in bodyweight treated chronically with the enhancer substances was analyzed by One-way ANOVA. Statistical analysis of survival rate and tumor manifestation was performed by the Kaplan-Meier method.

For test [1], the system named is male Wistar rats (Charles River). Nature of the test: Longevity study: survival of rats treated 3 times a week s.c. The class given is in vivo, rat. As to the method: Experiments were carried out on male Wistar rats (Charles River) weighing 250-350 g received from the breeding colony of Semmelweis University. The animals were kept in a 12-hour light-dark cycle and under condition of controlled temperature (22±2° C.) and relative humidity (55±5%). Room temperature and relative humidity was checked daily. The rats were maintained on standard laboratory chow and tap water ad libitum. All procedures conformed to the European Convention for the protection of vertebrate animals used for experimental and other scientific purposes. The study was approved by the Animal Ethics Committee of Semmelweis University, Budapest (permission number: 1810/003/2004)
as §1, §2
To avoid the mixing of the groups and individuals, saline-treated rats were signed blue from 1 to 40; D-treated rats were signed green from 1 to 80 (1-40: rats treated with 0.1 mg/kg and 41-80: rats treated with 0.001 mg/kg); B-treated rats were signed black from 1 to 80 (1-40: rats treated with 0.05 mg/kg and 41-80: rats treated with 0.0001 mg/kg).
as §3

The subject of the next test is Daoy HTB-186 cell line. Nature of the test: MTT proliferation assay, Daoy medulloblastoma cells. It counts as cell-based, human. As to conditions: for proliferation of cultured medulloblastoma cells: monotherapy, nine concentrations 10^-14 to 10^-6 M, 72 hours. As to the method: (§4) Human medulloblastoma cell line, Daoy was purchased from ATCCC, UW-228 was obtained from the courtesy of Professor Silber (Univerity of Washington, Seattle, Wash., USA).
(§5) Daoy and UW-228-2 cell lines were maintained in culture medium (each 500 ml Minimum Essential Medium Eagle, Alpha Modification (M8042, Sigma, St Louis, USA) with 50 ml FCS (Gibco), 40 mg Gentamicin (Sandoz), 5 ml sodium-pyruvate (S8636, Sigma, St Louis, USA), 5 ml non-essential-amino acid solution (M7145, Sigma, St Louis, USA), 10 ml L-glutamin (Sigma, St Louis, USA) at 37° C. in humified 5% CO2.
(§6) In each well 3×10^3 Daoy or UW-228-2 cells were seeded in 96-well plates (Sarstedt), solved in 100 μl of its own medium with 10% FCS. 24 hours after seeding, cells were treated for 72 hours by drugs solved in further 100 μl medium. First, both cell lines were treated by (−)-BPAP and (−)-deprenil in monotherapy to determine its dose-effect curves in concentration of 10^−6, 10^−7, 10^−8, 10^−9, […], 10^−11, 10^−12, 10^−13 and 10^−14 M. In combined treatment 10^−3, 3.3×10^−4, […] and 3.7×10^−5 M of temozolomide (Schering Plough, USA) or 0.04, 0.2, 1, 5 μM of Cisplatin (Ebewe Pharma, Austria) or 0.04, 0.2, 1, 5 μM of etoposide (Ebewe Pharma, Austria) or 10^−7, 10^−6, 10^−5 and 10^−4 μM (UW228-2) or 0.001, 0.005, 0.025 and 0.125 μM (Daoy) of Vincristin (Richter Gedeon, Hungary) were applied in monotherapy or combined with 10^−13 or 10^−8 M of (−)-BPAP or (−)-deprenil.
(§7) Cell proliferation was evaluated by MTT (3-(4,5-Dimethylthiazol-2-yl)-2,5-diphenyltetrazolium bromide) assay (M5655, Sigma) after 72-hour treatment by the method described in manufacturer's protocol.

The test system of another test is UW-228-2 cell line. Put plainly: MTT proliferation assay, UW-228-2 medulloblastoma cells. The class given is cell-based, human. Particulars: for proliferation of cultured medulloblastoma cells: UW-228-2, monotherapy, nine concentrations 10^-14 to 10^-6 M, 72 hours. The method, then: as §4, §5, §6, §7
For orientation: Tetrazolium assays rely on reduction of a dye to a coloured formazan, in cell work by metabolically active cells.

Where [2] appears, read: 0.0001 mg/kg, N=40, listed as BPAP.

“Also recorded” adds a separate entry of the source.

`CCCN[C@H](CCC)Cc1cc2ccccc2o1` [(−)-BPAP, (2R)-1-(1-benzofuran-2-yl)-N-propylpentane-2-amine]: the “tumor manifestation suppressing (TMS) effect versus saline” value in the test with fibromyxosarcoma (0.0001 mg/kg) is on record as “significantly decreased; also recorded: more potent in suppressing tumor manifestation than 0.1 mg/kg (−)-deprenyl”; with fibromyxosarcoma (0.0001 mg/kg, listed as BPAP), “highly efficient; also recorded: suppressed the manifestation of the fibromyxosarcoma significantly”; in the test on fibromyxosarcoma (0.05 mg/kg), “significantly decreased”; in the test on fibromyxosarcoma (0.05 mg/kg, listed as BPAP) it was “suppressed the manifestation of the fibromyxosarcoma significantly”. Also, the “month of age in which the first animal manifested the tumor” value with fibromyxosarcoma (0.0001 mg/kg, N=40) came to 20 month; in the test with fibromyxosarcoma (setting [2]) it was 25 month; in the test with fibromyxosarcoma (0.05 mg/kg, N=40), 13 month. Besides, the “rats in the group manifested the tumor to the end of the 32nd month” value is 8 rats with fibromyxosarcoma (0.0001 mg/kg, N=40) and 7 rats with fibromyxosarcoma (0.05 mg/kg, N=40). Besides, the “rats manifested the fibromyxosarcoma when the group completed the 30th month of life” value with fibromyxosarcoma (0.0001 mg/kg, N=40) was found to be 8 rats. Further, in the test on fibromyxosarcoma (0.05 mg/kg, N=40), the “rats manifested the tumor when the group completed the 30th month of life” value is on record as 7 rats. Moreover, the “span of time from tumor manifestation until death” value in the test with fibromyxosarcoma (chronic treatment, versus saline (FIG. 13), One-way ANOVA) is “no significant difference”. Besides, the “lifespan compared with saline-treated peers” value in test [1] (0.0001 mg/kg 3 times a week, P<0.05) is listed as “lived significantly longer”; in test [1] (both doses of the longevity study (FIGS. 5-8)), “significantly longer”. For the same compound, the “month of age in which the first animal died” value came to 16 month in test [1] (0.0001 mg/kg s.c. 3 times a week, N=40) and 14 month in test [1] (0.05 mg/kg s.c. 3 times a week, N=40). Further, the “rats remained alive to the end of the 32nd month” value in test [1] (setting [2]) is “one and One”. Further, the “effectiveness of tumor-cell proliferation inhibiting agents in combination” value with Daoy HTB-186 cell line (10^-13 or 10^-8 M combined with temozolomide, Cisplatin, etoposide or Vincristin) is reported as “did not change the effectiveness”; in the test on UW-228-2 cell line (UW-228-2, 10^-13 or 10^-8 M combined with temozolomide, Cisplatin, etoposide or Vincristin), “did not change the effectiveness”. Further, the “proliferation of cultured medulloblastoma cells” value is on record as “did not inhibit the proliferation” with Daoy HTB-186 cell line, “none of the applied concentrations did Deprenyl or BPAP influence the proliferation” with Daoy HTB-186 cell line (listed as BPAP), “did not inhibit the proliferation” in the test on UW-228-2 cell line and “none of the applied concentrations did Deprenyl or BPAP influence the proliferation” in the test on UW-228-2 cell line (listed as BPAP).

These data come from patent US10258599B2, “Compounds for use in the prevention or treatment of cancer” (SEMMELWEIS UNIVERSITY, priority 2014, dated 2019).
